For one assay, the system named is keratin 1. As to the kind of experiment: Recovery of keratin 1 marker gene expression in fine dust-treated keratinocytes (quantitative real-time PCR). Type of assay: cell-based. To be noted: Human neonatal epidermal keratinocytes; 100 ppm fine dust 24 hours, then 50 ppm araloside for 5 days; FIG. 1; compared to fine dust only and untreated group. The protocol:
(§1) Human neonatal epidermal keratinocytes (HEK; Lonza, NHEK-Neo-Neonatal Normal. Human Epidermal Keratinocytes, Pooled) were dispensed in medium (KBM-gold, Lonza) in a 6-well plate at a density of 1×10^5 cells per well and cultured at 37° C. for 24 hours. 100 ppm of fine dust was treated in the well and subjected to stimulation for 24 hours, which was then treated with medium (KBM-gold, Lonza) containing 50 ppm each of […] and araloside X and incubated at 37° C. for 5 days. Then, RNA was extracted from the HEK cells incubated for 5 days using an RNeasy mini kit (Qiagen), and then a cDNA was synthesized through an RT-PCR process using a Superscript III kit (Invitrogen). To confirm the expression level of keratin 1 and keratin 10 genes, a probe (TaqMan™ fluorogenic probe, Hs00196158_m1, Hs00166289_m1) was used to conduct the quantitative real-time PCR process and observe the expression behavior of keratin 1 and keratin. 10. The control group used an untreated group not treated with fine dust and also not treated with araloside V, araloside VII and araloside X; and fine dust-treated group treated with fine dust but not, treated with araloside V, araloside VII and araloside X.
On the technique in general: In qPCR the cycle at which signal appears reflects the starting amount.

In the next assay the test system is keratin 10. As to the kind of experiment: Recovery of keratin 10 marker gene expression in fine dust-treated keratinocytes (quantitative real-time PCR). To be noted: Human neonatal epidermal keratinocytes; 100 ppm fine dust 24 hours, then 50 ppm araloside for 5 days; FIG. 1; compared to fine dust only and untreated group. Type of assay: cell-based. The protocol:
as §1

The test system of a further assay is IL8. As to the kind of experiment: IL8 protein production in fine dust-stimulated human fibroblasts (ELISA). The format is cell-based. Conditions: 100 ppm fine dust 24 hours, then sample 50 ppm for 48 hours, culture solution ELISA, fine dust only = 246. How it is done:
(§2) Human fibroblasts (PromoCell, Germany) were inoculated in a 6-well plate at a concentration of 1×10^5 cells, and cultured in an incubator (37° C., 5% CO2) for 24 hours. 100 ppm of fine dust was treated in the well and subjected to stimulation for 24 hours, which was then treated with medium containing 50 ppm each of araloside V, araloside VII and araloside X and allowed to react for 48 hours. After completion of the reaction, the culture solution was collected and subjected to ELISA analysis. At this time, α-bisabolol, a substance frequently used as an anti-inflammatory and irritation-mitigating agent, was used as a control group. Measurement of the production amount of IL8 and IL1B proteins was carried out using a ThermoFisher's kit, and experiments were conducted according to the method described in the company's manual.

The subject of another assay is IL1B. As to the kind of experiment: IL1B protein production in fine dust-stimulated human fibroblasts (ELISA). Conditions: 100 ppm fine dust 24 hours, then sample 50 ppm for 48 hours, culture solution ELISA, fine dust only = 311. The format is cell-based. The protocol:
as §2
In general terms: An ELISA detects its analyte on a solid surface through an enzyme-linked reagent.

The next assay concerns MMP-1. As to the kind of experiment: MMP-1 inhibitory effect in fine dust- and UVB-treated Hs68 fibroblasts (MMP-1 assay kit). The format is cell-based, Human. Conditions: 100 ppm fine dust 24 hours, UVB 30 mJ/M^2, then 50 ppm araloside for 48 hours, FIG. 2, compared to fine dust only and untreated group. How it is done: Human neonatal fibroblast HS68 was purchased from Cascade Biologics (Invitrogen, USA) and used. Hs68 was cultured using DMEM medium supplemented with 10% FBS (fetal bovine serum), 50 U/ml of penacillin and 50 μg/ml of streptomycin. Cells were cultured under the conditions of 37° C., 5% CO2. The Hs68 was added to a 12-well plate at a concentration of 7.5×10^4 cells/well and cultured overnight. On the next day, the medium was replaced with FBS-free medium having a fine dust concentration of 100 ppm and cultured for 24 hours. After irradiating with UVB 30 mJ/M^2, the araloside V, araloside VII, and araloside X were treated at a concentration of 50 ppm for 48 hours, respectively. After culture, the medium was collected and the production amount of MMP-1 was measured using an MMP-1 assay kit (GE healthcare). The control group used an untreated group not treated with fine dust and also not treated with araloside V, araloside VII and araloside X; and a fine dust-treated group treated with fine dust but not treated with araloside V, araloside VII and araloside X.

Assay [1] concerns Reactive Oxygen Species (ROS). As to the kind of experiment: Inhibitory effect on reactive oxygen species (ROS) production in fine dust-stimulated keratinocytes (DCF-DA fluorescence). The format is cell-based. To be noted: human keratinocytes; sample 50 ppm for 2 hours, then treated with 100 ppm of fine dust; vehicle control = 100, fine dust only = 384. How it is done: 5×10^4 Keratinocytes isolated from human epidermal tissue were added to each well of a 24-well plate and allowed to adhere for 24 hours. Then, […] and araloside X were treated at 50 ppm, respectively. At this time, for comparison, a control group (untreated group) was not treated with araloside V, araloside VII and araloside X, and a positive control group was treated with a known antioxidant ascorbic acid. After 2 hours, the culture solution was removed, and then 100 μl of phosphate buffered saline (PBS) containing 100 ppm of fine dust was added to each well. Then, the amount of active oxygen species increased by fine dust stimulation was quantified. The amount of ROS was quantified with reference to Tan's method of measuring the fluorescence of DCF-DA (dichlorofluorescin diacetate) oxidized by ROS (Tan et al., 1998, J. Cell Biol. Vol. 141, pp 1423-1432).

Turning to `CC1(C)CC[C@]2(C(=O)O[C@@H]3O[C@H](CO)[C@@H](O)[C@H](O)[C@H]3O)CC[C@]3(C)C(=CC[C@@H]4[C@@]5(C)CC[C@H](O[C@H]6O[C@H](CO)[C@@H](O)[C@@H](O[C@@H]7O[C@H](CO)[C@@H](O)[C@H](O)[C@H]7O)[C@H]6O[C@@H]6O[C@H](CO)[C@@H](O)[C@H](O)[C@H]6O)C(C)(C)[C@@H]5CC[C@]43C)[C@@H]2C1` [araloside V], the “expression of keratin 1 gene” value with keratin 1 is “a level equal to or higher than that in the untreated group”. For the same molecule, the “expression of keratin 10 gene” value with keratin 10 is listed as “a level equal to or higher than that in the untreated group”. For the same molecule, in the assay with IL8, the “IL8 (production amount of protein)” value was 189 pg/mL. Further, the “IL1B (production amount of protein)” value in the assay on IL1B was found to be 243 pg/mL. Moreover, the “MMP-1 activity (production amount of MMP-1)” value (“MMP-1 activity” for short) with MMP-1 is “to about the level of MMP-1 activity in the untreated (control) group”. In assay [1], the “amount of ROS, ratio to control group treated with only vehicle (=100)” value (“amount of ROS, ratio” for short) was found to be 110.

For `CC1(C)CC[C@]2(C(=O)O[C@@H]3O[C@H](CO)[C@@H](O)[C@H](O)[C@H]3O)CC[C@]3(C)C(=CC[C@@H]4[C@@]5(C)CC[C@H](O[C@@H]6O[C@H](CO)[C@@H](O)[C@H](O[C@@H]7O[C@H](CO)[C@@H](O)[C@H](O)[C@H]7O)[C@H]6O[C@@H]6O[C@H](CO)[C@@H](O)[C@H](O)[C@H]6O)[C@@](C)(CO)[C@@H]5CC[C@]43C)[C@@H]2C1` [araloside VII], the “expression of keratin 1 gene” value in the assay with keratin 1 is given as “a level equal to or higher than that in the untreated group”. Further, the “expression of keratin 10 gene” value with keratin 10 is recorded as “a level equal to or higher than that in the untreated group”. The “IL8 (production amount of protein)” value in the assay on IL8 was 184 pg/mL. The “IL1B (production amount of protein)” value in the assay on IL1B worked out at 256 pg/mL. For the same molecule, the “MMP-1 activity” value with MMP-1 is “to about the level of MMP-1 activity in the untreated (control) group”. The “amount of ROS, ratio” value in assay [1] is recorded as 105.

Consider α-bisabolol [reference compound], for which, in the assay with IL8, the “IL8 (production amount of protein)” value was 180 pg/mL. Further, the “IL1B (production amount of protein)” value in the assay with IL1B was 214 pg/mL.

With `CC1(C)CC[C@]2(C(=O)O[C@@H]3O[C@H](CO)[C@@H](O)[C@H](O)[C@H]3O)CC[C@]3(C)C(=CC[C@@H]4[C@@]5(C)CC[C@H](O[C@@H]6O[C@H](CO)[C@@H](O)[C@H](O[C@@H]7O[C@H](CO)[C@@H](O)[C@H](O[C@@H]8O[C@H](CO)[C@@H](O)[C@H](O)[C@H]8O)[C@H]7O)[C@H]6O[C@@H]6O[C@H](CO)[C@@H](O)[C@H](O)[C@H]6O)C(C)(C)[C@@H]5CC[C@]43C)[C@@H]2C1` [araloside X], in the assay with keratin 1, the “expression of keratin 1 gene” value is “a level equal to or higher than that in the untreated group”. The “expression of keratin 10 gene” value in the assay with keratin 10 was “a level equal to or higher than that in the untreated group”. In addition, the “IL8 (production amount of protein)” value in the assay on IL8 amounted to 187 pg/mL. Further, the “IL1B (production amount of protein)” value in the assay on IL1B stood at 252 pg/mL. In addition, the “MMP-1 activity” value in the assay on MMP-1 is recorded as “to about the level of MMP-1 activity in the untreated (control) group”. In assay [1], the “amount of ROS, ratio” value amounted to 102.

For `O=C1O[C@H]([C@@H](O)CO)C(O)=C1O` [ascorbic acid, reference compound], the “amount of ROS, ratio” value in assay [1] stood at 200.

These data come from patent US11052098B2, “Composition containing araloside for external application to skin” (Amorepacific Corporation, priority 2015, dated 2021).
